The values below come from ChEMBL document CHEMBL4321885, “Biomimetic Macrocyclic Inhibitors of Human Cathepsin D: Structure-Activity Relationship and Binding Mode Analysis” (J Med Chem, 2020).

The target in data set [1] is Beta-secretase 1 (Homo sapiens) (UniProt P56817). Nature of the data set: Inhibition of recombinant human C-terminal 10His-tagged BACE1 expressed in mouse NS0 cells at 5 uM using Mca-Ser-Glu-Val-Asn-Leu-Asp-Ala-Glu-Phe-Arg-Lys(Dnp)-Arg-Arg as substrate preincubated for 10 mins followed by substrate addition and measured by FRET assay.
For data set [2], the target named is Protease (Human immunodeficiency virus 1) (UniProt Q9YQ12). Nature of the data set: Inhibition of HIV1 protease at 5 uM using Abz-Tyr-Ile-Nle-Nph-Gln-Arg as substrate preincubated for 10 mins followed by substrate addition and measured by FRET assay.
The next data set has as its target T1, Thermolysin (Geobacillus stearothermophilus, UniProt P43133).
T1 sequence (P43133 whole entry): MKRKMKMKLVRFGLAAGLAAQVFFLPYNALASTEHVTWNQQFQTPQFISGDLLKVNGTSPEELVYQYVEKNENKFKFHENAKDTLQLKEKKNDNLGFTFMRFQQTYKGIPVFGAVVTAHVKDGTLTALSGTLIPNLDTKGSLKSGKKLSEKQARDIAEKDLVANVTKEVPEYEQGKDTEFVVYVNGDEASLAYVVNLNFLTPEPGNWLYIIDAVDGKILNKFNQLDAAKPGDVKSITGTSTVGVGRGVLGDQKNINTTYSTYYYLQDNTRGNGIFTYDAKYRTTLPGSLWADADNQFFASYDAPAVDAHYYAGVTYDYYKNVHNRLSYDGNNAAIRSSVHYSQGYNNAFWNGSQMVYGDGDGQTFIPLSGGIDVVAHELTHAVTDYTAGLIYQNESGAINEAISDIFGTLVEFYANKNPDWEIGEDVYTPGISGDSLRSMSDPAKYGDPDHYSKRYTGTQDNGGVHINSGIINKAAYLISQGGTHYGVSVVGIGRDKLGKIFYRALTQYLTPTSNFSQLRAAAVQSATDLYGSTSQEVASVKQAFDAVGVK
Nature of the data set: Stability of the compound assessed as Geobacillus stearothermophilus thermolysin-mediated compound hydrolysis at 25 ug measured after 18 hrs by HPLC analysis. In kind it is ADME.

A further data set addresses Cathepsin D (Homo sapiens, UniProt P07339). Nature of the data set: Inhibition of human placenta CatD using Abz-Lys-Pro-Ala-Glu-Phe-Nph-Ala-Leu as substrate preincubated for 10 mins followed by substrate addition and measured by FRET assay.
The species named for data set [3] is Bos taurus. Nature of the data set: Inhibition of bovine trypsin at 1 uM using Z-Phe-Arg-AMC as substrate preincubated for 10 mins followed by substrate addition and measured after 20 mins by fluorescence assay.
Data set [4] is described as follows: Stability of the compound assessed as bovine trypsin-mediated compound hydrolysis at 25 ug measured after 18 hrs by HPLC analysis. In kind it is ADME, Bos taurus. To be noted: cattle.
Data set [5] can be described thus: Stability of the compound assessed as bovine chymotrypsin-mediated compound hydrolysis at 25 ug measured after 18 hrs by HPLC analysis. Particulars: cattle. In kind it is ADME, Bos taurus.
For data set [6], the target named is T2, Renin (Homo sapiens) (UniProt P00797).
T2 sequence (whole entry): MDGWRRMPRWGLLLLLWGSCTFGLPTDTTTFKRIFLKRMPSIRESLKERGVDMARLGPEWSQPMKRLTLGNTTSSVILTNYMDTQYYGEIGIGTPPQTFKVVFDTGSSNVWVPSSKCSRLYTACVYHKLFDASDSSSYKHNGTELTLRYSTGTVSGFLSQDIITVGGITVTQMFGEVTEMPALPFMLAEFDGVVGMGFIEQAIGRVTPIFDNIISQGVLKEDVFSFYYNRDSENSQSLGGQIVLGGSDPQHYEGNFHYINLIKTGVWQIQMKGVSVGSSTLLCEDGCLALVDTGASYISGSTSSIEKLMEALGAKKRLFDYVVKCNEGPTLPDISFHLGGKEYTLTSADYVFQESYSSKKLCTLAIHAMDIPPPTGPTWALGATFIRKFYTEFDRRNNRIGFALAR
Nature of the data set: Inhibition of recombinant human N-terminal FLAG-tagged renin (67 to 406 residues) expressed in HEK cells at 5 uM using Arg-Glu(EDANS)-Ile-His-Pro-Phe-His-Leu-Val-Ile-His-Thr-Lys(Dabcyl)-Arg as substrate preincubated for 10 mins followed by substrate addition and measured by FRET assay.

For data set [7], the target named is Beta-secretase 1 (Homo sapiens) (UniProt P56817). Nature of the data set: Inhibition of recombinant human C-terminal 10His-tagged BACE1 expressed in mouse NS0 cells at 50 nM using Mca-Ser-Glu-Val-Asn-Leu-Asp-Ala-Glu-Phe-Arg-Lys(Dnp)-Arg-Arg as substrate preincubated for 10 mins followed by substrate addition and measured by FRET assay.
The target in another data set is T3, Papain (Carica papaya, UniProt P00784).
T3 sequence (P00784 whole entry): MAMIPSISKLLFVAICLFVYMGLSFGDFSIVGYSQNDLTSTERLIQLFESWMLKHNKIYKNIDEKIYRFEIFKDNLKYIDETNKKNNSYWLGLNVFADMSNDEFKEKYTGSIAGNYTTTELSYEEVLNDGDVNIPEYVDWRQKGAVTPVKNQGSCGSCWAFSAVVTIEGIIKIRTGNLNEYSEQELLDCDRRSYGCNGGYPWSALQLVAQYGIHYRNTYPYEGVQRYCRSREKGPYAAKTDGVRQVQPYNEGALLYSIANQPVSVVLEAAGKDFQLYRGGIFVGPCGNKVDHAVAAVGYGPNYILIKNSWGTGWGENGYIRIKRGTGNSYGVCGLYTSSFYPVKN
Nature of the data set: Stability of the compound assessed as papaya papain-mediated compound hydrolysis at 25 ug measured after 18 hrs by HPLC analysis. The format is ADME.

The target of data set [8] is T4, Thermolysin (Geobacillus stearothermophilus) (UniProt P43133).
T4 sequence (whole entry): T1 sequence (P43133 whole entry)
Nature of the data set: Inhibition of Geobacillus stearothermophilus thermolysin at 1 uM using Abz-Ala-Gly-Leu-Ala-nitro-benzylamide as substrate preincubated for 10 mins followed by substrate addition and measured after 20 mins by fluorescence assay.

Data set [9] concerns the target Saccharopepsin (Saccharomyces cerevisiae S288c) (UniProt P07267). Nature of the data set: Inhibition of Baker's yeast proteinase A at 50 nM using Abz-Lys-Pro-Ala-Glu-Phe-Nph-Ala-Leu as substrate preincubated for 10 mins followed by substrate addition and measured by FRET assay.
In the next data set the test system is Ixodes ricinus. Nature of the data set: Inhibition of Ixodes ricinus CatD expressed in Escherichia coli BL21(DE3) at 50 nM using Abz-Lys-Pro-Ala-Glu-Phe-Nph-Ala-Leu as substrate preincubated for 10 mins followed by substrate addition and measured by FRET assay.
The target of data set [10] is Protease (Human immunodeficiency virus 1) (UniProt Q9YQ12). Nature of the data set: Inhibition of HIV1 protease at 50 nM using Abz-Tyr-Ile-Nle-Nph-Gln-Arg as substrate preincubated for 10 mins followed by substrate addition and measured by FRET assay.
The test system of the next data set is NHDF. Nature of the data set: Cytotoxicity against NHDF cells assessed as reduction in cell viability up to 100 uM measured after 72 hrs by Celltiter-glo assay. To be noted: human. In kind it is cell-based. For orientation: Cellular ATP, detected with luciferase, serves as a proxy for viable cell number.
For data set [11], the species on record is Bos taurus. Nature of the data set: Inhibition of bovine chymotrypsin at 1 uM using Z-Phe-Arg-AMC as substrate preincubated for 10 mins followed by substrate addition and measured after 20 mins by fluorescence assay.
For the next data set, the system named is PBMC. Nature of the data set: Cytotoxicity against human PBMC cells assessed as reduction in cell viability up to 100 uM measured after 72 hrs by Celltiter-glo assay. In kind it is cell-based.
For a further data set, the target named is T5, Papain (Carica papaya) (UniProt P00784).
T5 sequence (whole entry): T3 sequence (P00784 whole entry)
Nature of the data set: Inhibition of papaya papain at 1 uM using Z-Phe-Arg-AMC as substrate preincubated for 10 mins followed by substrate addition and measured after 20 mins by fluorescence assay.

A short description of data set [12]: Apparent permeability in human Caco2 cells at 5 uM measured after 5 hrs by LC-MS analysis. The format is ADME, cell-based. To be noted: Caco-2. For orientation: Passage across Caco-2 layers is used to estimate intestinal permeability.
Data set [13] deals with T2, Renin (Homo sapiens). Nature of the data set: Inhibition of recombinant human N-terminal FLAG-tagged renin (67 to 406 residues) expressed in HEK cells at 50 nM using Arg-Glu(EDANS)-Ile-His-Pro-Phe-His-Leu-Val-Ile-His-Thr-Lys(Dabcyl)-Arg as substrate preincubated for 10 mins followed by substrate addition and measured by FRET assay.
The nature of data set [14]: Solubility of the compound in pH 7.4 phosphate buffered saline by HPLC-MS analysis. In kind it is physicochemical.
The species named for another data set is Sus scrofa. Nature of the data set: Inhibition of porcine pepsin at 50 nM using Abz-Lys-Pro-Ala-Glu-Phe-Nph-Ala-Leu as substrate preincubated for 10 mins followed by substrate addition and measured by FRET assay.

≈ marks a conversion by molar mass, not a printed value. Calls of active or inactive are those of the source. The calls are words filed in the database; no cut-off is given here.

Sequence of Protease (Human immunodeficiency virus 1) (Q9YQ12 as listed by the source): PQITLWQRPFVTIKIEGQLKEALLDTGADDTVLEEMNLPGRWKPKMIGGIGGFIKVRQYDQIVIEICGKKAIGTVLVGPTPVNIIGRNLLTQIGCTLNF
Sequence of Saccharopepsin (Saccharomyces cerevisiae S288c) (P07267 whole entry): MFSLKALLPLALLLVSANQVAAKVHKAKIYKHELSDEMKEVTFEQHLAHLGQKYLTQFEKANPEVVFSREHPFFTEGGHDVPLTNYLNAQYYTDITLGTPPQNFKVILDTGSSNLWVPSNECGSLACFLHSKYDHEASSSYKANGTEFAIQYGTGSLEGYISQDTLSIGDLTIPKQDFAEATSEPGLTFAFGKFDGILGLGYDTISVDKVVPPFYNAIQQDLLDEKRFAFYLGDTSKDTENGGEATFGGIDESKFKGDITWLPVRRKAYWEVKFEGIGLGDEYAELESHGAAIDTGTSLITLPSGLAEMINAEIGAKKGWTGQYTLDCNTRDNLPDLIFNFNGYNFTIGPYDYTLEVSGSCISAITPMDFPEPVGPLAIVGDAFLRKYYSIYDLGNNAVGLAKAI
Sequence of Beta-secretase 1 (Homo sapiens) (P56817 whole entry): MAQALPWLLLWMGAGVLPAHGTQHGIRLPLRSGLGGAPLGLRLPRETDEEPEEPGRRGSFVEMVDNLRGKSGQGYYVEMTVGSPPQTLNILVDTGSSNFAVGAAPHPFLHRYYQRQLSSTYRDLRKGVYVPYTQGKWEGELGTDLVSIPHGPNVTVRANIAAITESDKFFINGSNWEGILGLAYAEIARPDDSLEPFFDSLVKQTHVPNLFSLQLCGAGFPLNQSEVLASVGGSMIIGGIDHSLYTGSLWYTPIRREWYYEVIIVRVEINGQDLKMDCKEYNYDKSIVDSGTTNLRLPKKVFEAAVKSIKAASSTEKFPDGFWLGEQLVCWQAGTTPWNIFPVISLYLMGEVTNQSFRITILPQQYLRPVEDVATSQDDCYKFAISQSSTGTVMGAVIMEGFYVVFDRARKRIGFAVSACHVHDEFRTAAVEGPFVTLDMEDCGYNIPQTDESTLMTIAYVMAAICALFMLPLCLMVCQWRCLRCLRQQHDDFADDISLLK
Sequence of Cathepsin D (P07339 65-162 limits assumed): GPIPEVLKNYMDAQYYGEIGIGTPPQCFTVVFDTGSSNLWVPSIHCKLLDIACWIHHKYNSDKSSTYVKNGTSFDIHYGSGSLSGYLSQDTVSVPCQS
Sequence of Cathepsin D (P07339 169-412 limits assumed): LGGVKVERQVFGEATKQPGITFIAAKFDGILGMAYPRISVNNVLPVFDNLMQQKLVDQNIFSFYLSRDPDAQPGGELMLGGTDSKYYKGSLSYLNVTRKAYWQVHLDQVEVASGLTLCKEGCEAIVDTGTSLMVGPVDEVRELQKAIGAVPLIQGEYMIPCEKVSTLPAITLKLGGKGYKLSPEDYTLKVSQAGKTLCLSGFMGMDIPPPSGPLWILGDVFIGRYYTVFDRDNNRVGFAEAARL

What is called IC50 is the midpoint of a concentration-inhibition curve. Usually Papp stands for a coefficient for how fast a substance crosses the barrier. As for `CC(C)[C@@H]1NC(=O)C[C@H](O)[C@H](Cc2ccccc2)NC(=O)OCCCCCCCCCCCNC1=O`, the inhibition result (in [1]; in data set [2]; at Renin (Homo sapiens) [6]; in [9]; with Ixodes ricinus) was “Active” each time. Further, the Stability entry (at Thermolysin; in data set [4]; in [5]; at Papain) was “Stable” throughout. The molecule further returned an IC50 at Cathepsin D of 2.5 nM. Further, the inhibition result (in the data set filed under Bos taurus [3]; in data set [7]; in [8]; in data set [10]; in the data set listed under Bos taurus [11]; on Papain (Carica papaya)) was “inactive” in each case. For the same molecule, the inhibition entry on Renin (Homo sapiens) [13] is “inactive”. The Activity result in the data set with NHDF and in the data set with PBMC was “Non-Toxic” in each case. Moreover, the Papp at 5 h, 5 µM in data set [12] is 1.68 ×10⁻⁶ cm/s.

The solubility is the concentration that dissolves in the medium under given conditions. A high value points to much dissolved substance. For `CC(C)CC(=O)N[C@H](C(=O)N[C@H](C(=O)N[C@@H](CC(C)C)[C@@H](O)CC(=O)N[C@@H](C)C(=O)N[C@@H](CC(C)C)[C@@H](O)CC(=O)O)C(C)C)C(C)C` [PEPSTATIN], the solubility in [14] stood at 197 µg/mL (≈ 287 µM). In addition, the Activity entry with NHDF and with PBMC was “Non-Toxic” throughout. For the same molecule, the Papp at 5 h, 5 µM in data set [12] was found to be 0.11 ×10⁻⁶ cm/s.

Turning to `CC(C)[C@@H]1NC(=O)C[C@H](O)[C@H](Cc2ccccc2)NC(=O)CCCCCCCCCCCCCNC1=O`, the inhibition result (in data set [1]; in [2]; in the data set listed under Sus scrofa; on Renin (Homo sapiens) [6]; in data set [9]; with Ixodes ricinus) was “Active” in each case. On Cathepsin D, this molecule showed an IC50 of 11 nM. Also, the inhibition entry (in data set [7]; in data set [10]; on Renin (Homo sapiens) [13]) was “inactive” throughout.

With `O=C1C[C@H](O)[C@H](Cc2ccccc2)NC(=O)CCCCCCCCCCCNC(=O)[C@H](Cc2cccnc2)N1`, the inhibition result (in data set [1]; in data set [2]; on Renin (Homo sapiens) [6]; in [9]; with Ixodes ricinus) was “Active” in each case. Also, the Stability entry (on Thermolysin; in [4]; in [5]; on Papain) was “Stable” in each case. The molecule further came in with an IC50 on Cathepsin D of 1.1 nM. Also, the inhibition result (in the data set filed under Bos taurus [3]; in data set [7]; in [8]; in [10]; in the data set filed under Bos taurus [11]; on Papain (Carica papaya)) was “inactive” throughout. Further, the inhibition result at Renin (Homo sapiens) [13] was “inactive”. This molecule also gave a solubility in data set [14] of 342 µg/mL (≈ 637 µM). Besides, the Activity entry in the data set on NHDF and in the data set on PBMC was “Non-Toxic” in each case.
